The values that follow come from patent publication US12329733B2, “Acetyl-leucine or a pharmaceutically acceptable salt thereof for improved mobility and cognitive function” (INTRABIO LTD., priority 2016, dated 2025).

The subject of test [1] is patients with postural imbalance / gait disorder; subjects. The test is described as follows: clinical examination and patient/family reports of balance, gait, dizziness and falls. Type of test: in vivo, human. From the text: In addition to the mobility assessments disclosed above, mobility in a subject having a mobility disorder associated with ageing may be tested, for example, using assessments of balance and/or through monitoring the number of falls experienced by the subject.

Test [2] has as its system rat model of an acute unilateral labyrinthectomy. The conditions noted are these: by activation of the vestibulo-cerebellum and deactivation of the posterolateral thalamus; ref (4); cited from earlier work.

Molecules are shown by their SMILES.

As for `N[C@@H](Cc1ccc(O)c(O)c1)C(=O)O` [L-Dopa], the improvement during treatment entry was “no improvement was observed” in test [1] (Example 2: person, balance disorder, Datscan borderline pathological) and “No improvement was observed” in test [1] (Example 5: patient, progressive gait disorder).

Regarding `CC(=O)N[C@@H](CC(C)C)C(=O)O` [N-acetyl-L-leucine], in test [2], the “effect on postural compensation” value was “significant effect”.
